Literature values in US8808752B2, “Controlled release particles and method for producing the same” (priority 2009, dated 2014).

SMILES | water solubility (in words) | water solubility
C=C(C)C(=O)OCCOC(=O)C(=C)C [Ethylene glycol dimethacrylate] | water-insoluble | –
CSc1nc(NC2CC2)nc(NC(C)(C)C)n1 [MBACT, 2-methylthio-4-t-butylamino-6-cyclopropylamino-s-triazine, reference compound] | – | 7 ppm
C=C(C)C(=O)O [Methacrylic acid] | – | 8.9 wt %
CCCC1COC(Cn2cncn2)(c2ccc(Cl)cc2Cl)O1 (centres unmarked) [Propiconazole, 1-[2-(2,4-dichlorophenyl)-4-n-propyl-1,3-dioxolane-2-ylmethyl]-1H-1,2,4-triazole, reference compound] | – | 110 ppm
C=C(C)C(=O)OCCCC [n-Butyl methacrylate] | – | 0.08 wt %
